# Results as given in article PMC2477761, “D-glucose Stimulates the Na^+/K^+ Pump in Mouse Pancreatic Islet Cells” (International journal of experimental diabetes research, 2000).
# Tested on: T1, Na+/K+ ATPase (islet homogenate, ob/ob mice)
# T1 construct: gene Atp1a1
# Settings: read-out: apparent K 0.5; 135 mM Na+, 20 mM K+, Mg2+, pH 7.4, 37 C, 10 min; deoxycholate-treated homogenate; 1 mM ouabain difference
structure (smiles),measurement,value
Nc1ncnc2c1ncn2[C@@H]1O[C@H](COP(=O)(O)OP(=O)(O)OP(=O)(O)O)[C@@H](O)[C@H]1O [ATP],Km,500 µM
